One data set deals with S. epidermidis. Briefly: Effects of aromatic esters of GMCHA on growth of S. epidermidis. Format: cell-based.
In another data set the test system is E. coli. As to the kind of experiment: Effects of GMCHA derivatives on E. coli growth. Type of data set: cell-based. Conditions: for IC50: Escherichia coli; for E. coli IC91 / E. coli IC100: growth, Table 2.
Another data set addresses T1, E. coli Proteinase In (Escherichia coli, UniProt P27298).
T1 construct: We detected a single activity and had purified it to homogeneity; made in house; host or cells: endogenous enzyme purified from E. coli extracts (not recombinant)
As to the kind of experiment: Inhibition of purified E. coli proteinase In (fluorogenic substrate Boc-Val-Pro-Arg-NH-Mec). Format: biochemical. An excerpt:
Since the GMCHA derivatives were originally identified as synthetic trypsin inhibitors in vitro, we investigated whether a trypsin-like protease could be detected in E. coli extracts using as fluorogenic substrate Boc-Val-Pro-Arg-NH-Mec. (Kato et al., Eur. J. Biochem., 210:1007-1014 (1992)). We detected a single activity and had purified it to homogeneity. […] The purified enzyme has a molecular mass of ˜66 kDa and an isoelectric point of 4.9. Based upon pH optimum, hydrolytic activity on various synthetic substrates, and effects of various known proteolytic inhibitors, this E. coli protease has very different specificity than mammalian trypsin or any of known bacterial enzymes. Most exciting is the finding that the sensitivity of the purified enzyme to various GMCHA derivatives paralleled exactly their inhibitory effects on E. coli (Table 1). […] (Kato et al., Biol.Pharm. Bull., 16:552-557 (1993)). […]. […] We named this enzyme proteinase In, and its gene was identical with prlC. The prlC gene encoded a 67 kDa protein with two active sites for proteinase In and oligopeptidase A. (Jiang et al., J. Biochem., 124:980-985 (1998)). […] (Irisawa et al., Biol. Pharm. Bull., 16:1211-1215 (1993)).

The subject of another data set is B. subtilis. Briefly: Effects of aromatic esters of GMCHA on growth of B. subtilis. Type of data set: cell-based. The following applies: for IC50: Bacillus subtilis.
Another data set has as its system S. aureus. Briefly: Effects of aromatic esters of GMCHA on growth of S. aureus. Format: cell-based. The following applies: for IC20: Staphylococcus aureus, read-out: S. aureus IC20; for S. aureus IC100: growth.
For data set [1], the system named is H. pylori. Briefly: MIC against 9 strains of H. pylori. Format: cell-based. The following applies: 9 ATCC strains of H. pylori. The method, then:
MICs (μg/ml) of several substances against 9 strains (ATCC43504, ATCC43629, ATCC43526,ATCC43579,ATCC49503,ATCC51110,ATCC51652,ATCC51653, ATCC51932) of H. pylori were examined. NE-2001 had minimal inhibitory concentrations (MICs) ranging from 0.10 to 0.48 μg/ml.

Data set [2] has as its system synchronized E. coli cells. Format: cell-based.
Data set [3] can be described thus: Single dose toxicity in mice. Type of data set: in vivo.
The next data set deals with H. pylori ATCC43504. Briefly: Appearance frequency of natural resistant mutation. Format: cell-based. An excerpt:
FIG. 3. Illustrates the anti-H. pylori effects of the compound NE-2001 at various pH values. The appearance frequency of natural resistant mutations against NE-2001 was examined (Table 4).

The test system of data set [4] is H. pylori. Briefly: Bactericidal effect against H. pylori (time course, various concentrations and pH). Format: cell-based. The following applies: concentration ≧1.25 μg/ml. The method, then:
FIG. 2 illustrates the anti-H. pylori effects of the compound NE-2001. Bactericidal effect was examined at various concentration (0.15-2.50 μg/ml) for 168 hours. […] No visible organism was detected in 3 hr at a concentration of ≧1.25 μg/ml.

The mark [5] stands for this setting: read-out: E. coli Proteinase In IC50.

For orientation: IC50 means the point on the concentration scale where inhibition reaches its midpoint. By IC20 is commonly meant the concentration needed for an effect of 20%. One may read the LD50 as the dose at which mortality reaches 50%. Higher therefore signals lower toxicity.

Like-named read-outs stand apart in the source and are kept apart here. A value given as a limit tells only on which side of the number the result lay.

T1 sequence (P27298 whole entry): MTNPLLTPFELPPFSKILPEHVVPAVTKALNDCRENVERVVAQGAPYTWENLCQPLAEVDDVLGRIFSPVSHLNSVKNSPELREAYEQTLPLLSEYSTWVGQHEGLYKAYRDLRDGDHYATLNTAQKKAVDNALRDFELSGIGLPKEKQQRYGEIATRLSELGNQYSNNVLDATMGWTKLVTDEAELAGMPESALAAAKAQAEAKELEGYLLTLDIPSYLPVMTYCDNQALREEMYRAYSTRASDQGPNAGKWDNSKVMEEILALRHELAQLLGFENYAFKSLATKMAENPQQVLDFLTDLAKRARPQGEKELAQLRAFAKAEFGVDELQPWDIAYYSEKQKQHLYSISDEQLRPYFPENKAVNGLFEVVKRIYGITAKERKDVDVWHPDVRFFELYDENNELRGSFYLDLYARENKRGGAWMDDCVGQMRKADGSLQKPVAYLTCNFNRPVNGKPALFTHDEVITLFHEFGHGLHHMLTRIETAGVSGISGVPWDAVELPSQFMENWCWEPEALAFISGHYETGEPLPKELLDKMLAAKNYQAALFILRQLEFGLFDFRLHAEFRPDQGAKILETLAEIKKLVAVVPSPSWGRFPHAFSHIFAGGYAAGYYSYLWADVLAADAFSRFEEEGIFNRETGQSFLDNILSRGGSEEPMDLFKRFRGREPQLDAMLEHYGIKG

On to `N=C(N)NCC1CCC(C(=O)Oc2ccc(-c3ccccc3)cc2)CC1` (centres unmarked) [BP01], for which, in the data set with S. epidermidis, the “S. epidermidis IC91” value was determined as 0.4 and the S. epidermidis IC100 is 1.5 µM. In the data set with E. coli, the IC50 was determined as 26 µM, the “E. coli IC91” value came out at 26 and the E. coli IC100 came out at 40 µM. Further, the IC50 against E. coli Proteinase In amounted to 17 µM. Further, in the data set with B. subtilis, the B. subtilis IC100 amounted to 10 µM and the IC50 came to 4 µM. Moreover, in the data set on S. aureus, the IC20 was 0.6 µM and the S. aureus IC100 came to 2 µM.
`N=C(N)NCC1CCC(C(=O)Oc2ccccc2)CC1` (centres unmarked) [PH01]: in the data set on S. epidermidis, the “S. epidermidis IC91” value was 128 and the S. epidermidis IC100 is more than 200 µM. Moreover, in the data set with E. coli, the half-inhibitory concentration (IC50) was more than 200 µM, the “E. coli IC91” value is listed as more than 200 and the E. coli IC100 was more than 200 µM. On E. coli Proteinase In (setting [5]), the IC50 is more than 200 µM. For the same compound, in the data set on B. subtilis, the B. subtilis IC100 was more than 200 µM and the IC50 was more than 200 µM. Besides, in the data set on S. aureus, the IC20 was determined as 151 µM and the S. aureus IC100 is more than 200 µM.
As for `N=C(N)NCC1CCC(C(=O)Oc2ccccc2-c2ccccc2)CC1` (centres unmarked) [BP02], the results for the IC50 with E. coli and against E. coli Proteinase In were 74 µM and 83 µM, respectively.
With `Cc1ccc(OC(=O)C2CCC(CNC(=N)N)CC2)cc1` (centres unmarked) [PH02], in the data set with S. epidermidis, the “S. epidermidis IC91” value amounted to 48 and the S. epidermidis IC100 stood at 120 µM. Also, in the data set on E. coli, the IC50 was more than 200 µM, the “E. coli IC91” value is reported as more than 200 and the E. coli IC100 was more than 200 µM. At E. coli Proteinase In (setting [5]), the half-inhibitory concentration (IC50) was more than 200 µM. In the data set with B. subtilis, this compound returned a B. subtilis IC100 of more than 200 µM and an IC50 of more than 200 µM. Further, in the data set on S. aureus, the IC20 is 47 µM and the S. aureus IC100 was 120 µM.
In the case of `Cc1ncc([N+](=O)[O-])n1CCO` [Metronidazole], the “MIC Range” value with H. pylori [1] lay in the range of 0.65 to 2.45 µg/mL.
Turning to `N=C(N)NCC1CCC(C(=O)Oc2ccc(Cl)cc2Cl)CC1` (centres unmarked) [PH05], the IC50 came out at 92 µM in the data set with E. coli and 62 µM at E. coli Proteinase In.
Regarding `CC(C)(C)c1ccc(OC(=O)C2CCC(CNC(=N)N)CC2)cc1` (centres unmarked) [PH04], in the data set with S. epidermidis, the “S. epidermidis IC91” value came to 2.9 and the S. epidermidis IC100 was 10 µM. Besides, in data set [2], the “duration of R1 period” value turned out to be 35 min, the “time at which DNA synthetic activity doubled” value is 65 min and the “time of initiation of DNA synthesis” value is 30 min. Also, in the data set on E. coli, half-maximal inhibition (IC50) required 45 µM, the “E. coli IC91” value was found to be 45 and the E. coli IC100 amounted to 90 µM. The compound also returned an IC50 at E. coli Proteinase In of 38 µM. In addition, in the data set on B. subtilis, the B. subtilis IC100 turned out to be 50 µM and 26 µM corresponded to half-maximal inhibition (IC50). In the data set with S. aureus, the IC20 came to 3.4 µM and the S. aureus IC100 was 15 µM.
Turning to `Cc1ccc(COC(=O)c2ccc(-c3ccc(OC(=O)c4ccc(CNC(=N)N)cc4)cc3)cc2)cc1` [NE-2001, 4-(4-methylbenzyl)-4′-[guanidinomethylbenzoyloxy] biphenyl-4-carboxylate], in data set [3] (mouse, in vivo, 2000 mg/kg, oral, single dose, male mice, 6 weeks), the LD50 was more than 2000 mg/kg. Besides, in [3] (mouse, in vivo, po, 2000 mg/kg), the animal deaths result is recorded as “no animal deaths occurred”. Moreover, in data set [3] (mouse, in vivo, po, 2000 mg/kg), the body weight entry is given as “all animals gained weight”. Also, the general toxicity result in data set [3] (oral 2000 mg/kg, male mice) was “observed in neither cases”. The “Frequency of natural resistant mutation” value in the data set with H. pylori ATCC43504 (selected concentration of NE-2001 0.30 μg/ml), in the data set on H. pylori ATCC43504 (selected concentration of NE-2001 0.60 μg/ml) and with H. pylori ATCC43504 (selected concentration of NE-2001 1.20 μg/ml) was <3.4 × 10^−8 each time. Besides, the “MIC Range” value in the data set on H. pylori [1] was 0.10 to 0.48 µg/mL. Moreover, the “time at which no visible organism was detected” value with H. pylori [4] came to 3 h.
For the compound `CCc1ccc(OC(=O)C2CCC(CNC(=N)N)CC2)cc1` (centres unmarked) [PH03], in the data set on S. epidermidis, the “S. epidermidis IC91” value was found to be 14 and the S. epidermidis IC100 was 50 µM. Also, in the data set on E. coli, half-maximal inhibition (IC50) required 167 µM, the “E. coli IC91” value was 167 and the E. coli IC100 is more than 200 µM. At E. coli Proteinase In (setting [5]), the IC50 is more than 200 µM. For the same compound, in the data set with B. subtilis, the B. subtilis IC100 is more than 200 µM and 129 µM corresponded to half-maximal inhibition (IC50). In the data set on S. aureus, the IC20 was found to be 15 µM and the S. aureus IC100 came to 50 µM.
Take `N=C(N)NCC1CCC(C(=O)Oc2c(Cl)cc(Cl)cc2Cl)CC1` (centres unmarked) [PH06]: the IC50 worked out at 44 µM with E. coli and 35 µM on E. coli Proteinase In.
As to `CC1(C)S[C@@H]2[C@H](NC(=O)[C@H](N)c3ccc(O)cc3)C(=O)N2[C@H]1C(=O)O` [Amoxicillin], the “MIC Range” value against H. pylori [1] fell in the range of 0.01 to 0.08 µg/mL.
On to `CC[C@H]1OC(=O)[C@H](C)[C@@H](O[C@H]2C[C@@](C)(OC)[C@@H](O)[C@H](C)O2)[C@H](C)[C@@H](O[C@@H]2O[C@H](C)C[C@H](N(C)C)[C@H]2O)[C@](C)(OC)C[C@@H](C)C(=O)[C@H](C)[C@@H](O)[C@]1(C)O` [Clarithromycin], for which the “MIC Range” value in the data set with H. pylori [1] lay within 0.01 to 0.90 µg/mL.

The values above are taken from patent publication US6734212B2, “Methods and compositions for treating or preventing bacterial infection” (Shanghai East Best Biopharmaceutical, priority 2001, dated 2004).
